Laboratory results from a melting point compilation (Tetko et al.; mined from patent text by program, amines drawn as free bases though some values may be those of a salt).

Row | melting point [°C] | Structure (SMILES)
1 | 149 to 150 | CC(C)(CO)NC(=O)c1cccc(-c2cccc3cc(Cc4cc(F)cc(Cl)c4)sc23)c1
2 | 85.5 to 86.5 | O=[N+]([O-])c1cc(I)cc(CO)c1
3 | 87 to 90 | Nc1ccnn1-c1c(F)cc(C(F)(F)F)cc1Cl
4 | 78 to 80 | COCOc1cc([N+](=O)[O-])c(F)cc1Cl
5 | 204 to 206 | COc1ccc(CNc2ncc(Cl)cc2C(=O)O)cc1
6 | 246 | O=C(Nc1cccc2c1C1CCCCN1C2=O)Nc1nc(Cl)c(Cl)c(Cl)c1Cl (configuration not stated)
7 | 181 to 182 | CNCc1ccsc1CC(=O)O
8 | 186 to 188 | CCOCc1nc2c(N)nc3cc(Br)ccc3c2n1CC1CCOCC1
9 | 112 to 114 | OC(=S)c1cc(C(F)(F)F)c(Cl)cc1Cl
10 | 150 to 151 | CC(C)C(C(=O)O)c1ccc2sccc2c1 (configuration not stated)
11 | 176 to 178 | O=c1ccc(Cl)cn1[C@@H]1c2ccccc2OCC[C@H]1O (relative stereo)
12 | 80 to 81 | COc1cc(C=O)cc2c(C)c(C)oc12
13 | 92.8 to 97.8 | CCOC(=O)Nc1cc(OC2CCCC2)c(Cl)cc1F
14 | 169 to 171 | COC(C)C(=O)Nc1c(C(=O)c2ccccc2)[nH]c2cc(Cl)ccc12 (configuration not stated)
15 | 89 | O=C1c2ccc(Cl)cc2CC1Sc1ccccc1 (configuration not stated)
16 | 102 to 103 | CCC(=O)c1c(C)cc(NC(C)(C)C)nc1NC(C)(C)C
17 | 222 to 224 | COc1cc(N)c(Cl)cc1C(=O)NC1CCN(CC2CCN(C(N)=O)CC2)CC1
18 | 101 to 103 | Cc1ccc(CNC(=S)NCCO)c(C)c1
19 | 236 to 238 | CCNC(=O)N1CCN(c2ccc(NC(=O)c3cc(=O)c4cc(F)cc(N5CCN(C)CC5)c4o3)cc2)CC1
20 | 127 | CCOC(=O)N1CCC(Nc2ccc(C(F)(F)F)c([N+](=O)[O-])c2)CC1

Row | melting point [°C] | Structure (SMILES)
21 | 177 to 178 | COC(=O)c1ccccc1-n1c(CCl)nc2cccc(Cl)c2c1=O
22 | 159 to 161 | CCOC(=O)NC(=S)Nc1ccc(Br)cn1
23 | 172 to 174 | Cc1ccc(C(N)=S)c(N)c1
24 | 60 | COC(=O)c1ccc(NC(C)=O)c(CO)c1
25 | 164 to 166 | Cc1cc2c(cc1C)OC(CCN1CCC3(CC1)CNC(=O)CO3)CO2 (configuration not stated)
26 | 91 to 92 | COC(=O)c1cc(Cl)cc2c1OCCN2C
27 | 104 to 105 | COCCOC(=O)c1cc(NC(=O)OCc2ccccc2)ccc1OCCOC
28 | 174 | CCOC(=O)c1cccc(C(OC(=O)Nc2ccc3[nH]ncc3c2)[C@@H]2CCCCN2)c1 (some centres not stated)
29 | 225 to 227 | NS(=O)(=O)c1cc2[nH]c(C(Cl)Cl)nc2cc1Cl
30 | 90 to 92 | COC(=O)C(=CNc1c(-c2ccccc2)csc1C(=O)O)SC
31 | 163 to 165 | COC(=O)C1=C(O)c2ccccc2S(=O)(=O)N1C
32 | 82 | CCOC(=O)c1nn(Cc2ccc(Cl)cc2Cl)c(-c2ccc(Cl)cc2)c1C
33 | 104 to 105 | C[C@@H](O)CNC(=O)N1CC(c2ccc(F)cc2)C1
34 | > 300 | C[Si](C)(C)c1cc(C(=O)O)cc([Si](C)(C)C)c1
35 | 178 | COc1cccc2oc(-c3ccc(F)cc3)cc(=O)c12
36 | 85 to 86 | C=C(C)Cc1cc(C=O)cc(OCC)c1O
37 | 150 | Cc1cccc(Cl)c1NC(=O)CN1CCN(CCCC(c2ccc(F)cc2)c2ccc(F)cc2)C(CO)C1 (configuration not stated)
38 | 173 | CCn1cc(CN(C(=O)C2CCCc3c(O)cccc32)c2ccc(C(C)C)nc2)cn1 (configuration not stated)
39 | 239 to 241 | CN(C)C(=O)[C@@H]1C[C@H]1C(=O)c1c[nH]c2ccc(F)cc12 (relative stereo)

Further lines, the molecule ahead of its results:

Row | Structure (SMILES) | melting point [°C]
40 | CCCCCCCCCCCCCCSc1ccc(C(=O)O)o1 | 84 to 86
41 | O=C(O)c1cc2cc(Br)ccc2nc1N[C@H](Cc1ccccc1)C(=O)O | 140 to 141
42 | Cc1ncc2ccc(-c3cccs3)nc2n1 | 175 to 180
43 | CCN1C(=O)C(C)(C)C(=O)N(C)c2cc(CN(CCn3ccc4occc4c3=O)Cc3cccnc3COC)ccc21 | 123 to 125
44 | Cc1c(C)c2c(c(C)c1NC(=O)c1ccc(F)cc1)C(c1ccccc1)C(C)(C)O2 (configuration not stated) | 156 to 158
45 | O=S1(=O)CCN2CCCC(c3ccc(C(F)(F)F)cc3)C2=N1 (configuration not stated) | 226 to 227
46 | Cc1nc2n(c(=O)c1CCN1CCC(c3c[nH]c4ccccc34)CC1)CCCS2 | 227
47 | CCOc1cc(OCCCc2cn(-c3ccc(C(F)(F)F)cn3)nc2-c2ccccc2)ccc1CCC(=O)O | 135 to 136
48 | Clc1ccc(N=c2ssnc2Cl)cc1Cl | 89 to 90
49 | COCCO[C@@H]1c2ccc3[nH]c(C)nc3c2O[C@H](c2ccccc2)[C@H]1O | 117
50 | COc1cccc(OCc2cccc(OCc3ccc4ccccc4n3)c2)c1C(=O)O | 149 to 152
51 | N#Cc1cn(CCl)cc1-c1ccccc1Cl | 97 to 99
52 | CCOC(=O)N1CCn2c(nc(-c3ccncn3)cc2=O)C(NC(=O)c2ccc(-c3cnn(C)c3)cc2)C1 (configuration not stated) | 265 to 267
53 | O=[N+]([O-])c1ccc(Oc2ccc(N3CCN(c4ccncc4)CC3)cc2)nc1 | 174 to 175
54 | O=C(O)Cc1c[nH]c2nc(Nc3ccccc3)nn2c1=O | 279 to 281
55 | CC(C)OC(OC(C)C)(O[C@H](C)Cn1cnc2c(Cl)nc(N)nc21)P(=O)(O)O | 130 to 132
56 | CCc1c(OC)nc2nc(-c3noc(C(F)(F)F)n3)cn2c1C | 197 to 200
57 | O=C(NCc1cccnc1)Nc1ccc(S)cc1 | 155 to 159
58 | N#Cc1c(N)cccc1Oc1ccccc1 | 66 to 67
59 | Fc1ccc(C=Cc2nc(CNc3ccc(CCCCn4ccnn4)cc3)co2)c(C(F)(F)F)c1 | 109 to 111
60 | COC(=O)CC=C1CCC2C3CCC4=CC(=O)CCC4(C)C3CCC12C (configuration not stated) | 149 to 151

Row | Structure (SMILES) | melting point [°C]
61 | O=C(CCCCCN1CCN(c2cccc(OC(F)(F)F)c2)CC1)N1Cc2ccccc2C1 | 89
62 | CNc1cccc2c(=O)c(C)c(-c3ccccc3)oc12 | 143 to 146
63 | CC(C)(O)Cn1cnc2c(N)nc3c(c21)CCCC3 | 260 to 261
64 | CCOC(=O)CNC(=O)c1oc2cc(-c3ccc(Cn4c(C)nc5ccccc54)cc3)ccc2c1C | 184 to 186
65 | CCOP(=O)(/C=C/c1cn(-c2ccccc2)nc1OCc1ccc(OCc2nc(-c3ccco3)oc2C)cc1)OCC | 131 to 132
66 | CCNC(=O)NCCSCC(=O)NC/C=C\COc1cccc(CN2CCCCC2)c1 | 90.2 to 91.2
67 | COC1(c2cccc(O)c2)OOC12C1CC3CC(C1)CC2C3 (configuration not stated) | 135
68 | Cc1ccc(/C=C/c2nc(COc3ccc(CCCCn4ccnn4)cc3)co2)cc1 | 154 to 155
69 | Cn1cc(-c2ccccc2)c(=S)c(-c2cccc(C(F)(F)F)c2)c1 | 210
70 | CCN(C)c1nsc(N)c1C#N | 94 to 95
71 | Cc1ccc(-c2nc(Cl)cc(-c3ccccc3)n2)cc1 | 86 to 87
72 | CN(CCOc1ccc(N)cc1)c1ccncc1 | 141 to 142
73 | CCOC(=O)CCCC(=NO)c1ccccc1 | 28 to 30
74 | Cc1ncc2cccc(O)c2n1 | 135 to 137
75 | O=C(CCC(F)([N+](=O)[O-])[N+](=O)[O-])NNC(=O)C(F)(F)C(F)(F)F | 128 to 132
76 | CCCc1c(SCCCOc2ccc(C#N)cc2)ccc(C(C)=O)c1O | 90 to 92
77 | O=c1[nH]c(=O)n2c3c(cccc13)S(=O)c1ccc(C(F)(F)F)cc1-2 (configuration not stated) | 302 to 304
78 | Cc1ccc(NC(=O)c2cccc(C(F)(F)F)c2)cc1-c1ccc2cnncc2c1 | 97 to 100
79 | CN1CCN(c2cccc3ccc(-n4cnc5ccccc54)cc23)CC1 | 148 to 150
80 | CC(=O)NC1CC(n2cc(C=CBr)c(=O)[nH]c2=O)OC1CBr (configuration not stated) | 178 to 180
81 | Nc1cc(F)nc(F)c1F | 94 to 96

Row | Structure (SMILES) | melting point [°C]
82 | CC(C)(C)OC(=O)NC(Cc1c[nH]c2ccccc12)C(=O)C=Cc1cc(C(F)(F)F)cc(C(F)(F)F)c1 (configuration not stated) | 137 to 138
83 | CC(=O)O[C@]1(C)CC[C@@H]2C[C@H]1OO[C@@]2(C)CS(=O)(=O)c1ccccc1 | 98 to 99
84 | O=CNC1=NN(c2ccc(F)cc2)C(c2ccccc2)C1 (configuration not stated) | 158 to 160
85 | CC(C)(C)C(=O)OCC(CCn1cnc2c(=O)[nH]c(N)nc21)COC(=O)C(C)(C)C | 225 to 237
86 | CCOC(=O)c1cc(=O)c2cccc(NC(=O)c3ccc4c(c3)CC(COCc3ccccc3)O4)c2o1 (configuration not stated) | 166 to 168
87 | Cc1noc(NS(=O)(=O)c2ccccc2-c2cccs2)c1C | 112 to 115
88 | CC1=C(S(C)(=O)=O)C(c2ccccc2[N+](=O)[O-])C(C(=O)OC2CCCC2)=C(N=CN(C)C)N1 (configuration not stated) | 175
89 | Nc1ccccc1OCc1nc(Cl)ccc1Cl | 74 to 75
90 | NCCOc1cccc2c1ccn2S(=O)(=O)c1ccccc1 | 71 to 73
91 | CCCc1nc(CO)c(C(=O)OCOC(=O)C(C)(C)C)n1Cc1ccc(-c2ccccc2-c2nnn[nH]2)cc1 | > 60
92 | NS(=O)(=O)c1ccc(-c2cnn(Cc3ccc(F)c(F)c3F)c(=O)c2-c2ccc(F)cc2)cc1 | 218 to 220
93 | CCCCCNC(=O)N1CCC(c2nc(C3=NOC(c4ccccc4)C3)cs2)CC1 (configuration not stated) | 132 to 134
94 | CN(C)c1ccc(NC(=O)[C@@H](Cc2ccccc2)NC(=O)CCC(=O)O)cc1 | 197 to 198
95 | CC(c1ccccc1OCCCC(=O)O)N(c1cc(F)ccc1F)S(=O)(=O)c1ccc(Cl)cc1 (configuration not stated) | 141 to 142
96 | BrCCOc1ccsc1 | 46
97 | Cc1nc(-c2ccc(-c3cnc4[nH]c(=O)n(CCC5CCOCC5)c4n3)cc2)n[nH]1 | 290 to 292
98 | CCOCc1nc2c(N)nc3cc(-c4cccc(C(N)=O)c4)cnc3c2n1CC(C)(C)O | > 250
99 | CC(=O)c1ccc(OCc2ccccc2)c2ncccc12 | 131 to 133
100 | CC#CC(O)(c1ccc(C)cc1C)c1ccc(C)cc1C | 64 to 65
101 | S=C(Nc1ccc(Cl)cn1)N[C@@H]1C[C@@H]1c1ccccc1 | 190 to 191
102 | CCCCCC/C(=C\c1ccccc1)C1O[C@@H](C(=O)OC)[C@H](C(=O)OC)O1 | 49 to 50
